# Source: patent publication US11559575B2, “Multi-epitopic peptide compounds and vaccines against leishmaniasis” (INSTITUT DE RECHERCHE POUR LE DEVELOPPEMENT, priority 2018, dated 2023)
# Entries after “also recorded” stand apart in the source; their conditions may differ.
# What was measured:
# Type in all cases: binding, human
# [1] = test system: HLA alleles of class I; experiment: Affinity of epitopes for HLA alleles of class I; conditions: for Affinity for the HLA alleles of class I: H2B-1 epitopes; for Affinity for the HLA alleles of class I / Affinity HLA alleles of class I: Table 1; for Concatenation affinity for HLA allele of class I: LmLRAB (IA, IB, IC) epitopes, Table 2; for Affinity HLA alleles of class I: H2B-II core epitopes
# [2] = test system: HLA supertypes of class I; experiment: Affinity of epitopes for HLA supertypes of class I; conditions: for Affinity for the HLA supertypes of class I: H2B-1 epitopes; for Affinity for the HLA supertypes of class I / Affinity HLA supertype allele of class I: Table 1; for Affinity for HLA supertypes of class I: LmLRAB (IA, IB, IC) epitopes, Table 2; for Affinity HLA supertype allele of class I: H2B-II core epitopes
# From the text: HLA molecules are highly polymorphous. This is because there exist more than 2500 HLA proteins of class I (HLA-I) and more than 1000 HLA proteins of class II (HLA-II). However, some of these HLA molecules, close in sequence and in spatial conformation, may have epitopes common to the T cells. The grouping of several thousands of HLA molecules is at the present time described in a little more than 20 or so categories, referred to as “HLA supertypes” having epitopes that are very well preserved for each supertype.
# [3] = test system: HLA alleles of class II; experiment: Affinity of epitopes for HLA alleles of class II; conditions: Table 1; for Affinity for the HLA alleles of class II: H2B-1 epitopes; for Affinity HLA alleles of class II: H2B-II core epitopes
Sequence,Affinity for the HLA alleles of class I [1],Affinity for the HLA supertypes of class I [2],further results
MSHRTMKIKA (Leishmania major) [SEQ ID NO: 9],HLA-A*30:01,HLA-A*01/HLA-A*03,–
MSHRTMKSM (Leishmania major) [SEQ ID NO: 10],"HLA-B*57:01,; also recorded: HLA-A*30:01,; also recorded: HLA-B*15:01","HLA-A*01/HLA-A*03,; also recorded: HLA-B*58,; also recorded: HLA-B*62",–
MSMSHRTM (Leishmania major) [SEQ ID NO: 11],HLA-B*08:01,HLA-B*08,–
MSMSHRTMK (Leishmania major) [SEQ ID NO: 12],"HLA-A*11:01,; also recorded: HLA-A*31:01,; also recorded: HLA-A*03:01,; also recorded: HLA-A*68:01,; also recorded: HLA-A*30:01,; also recorded: HLA-A*33:01","HLA-A*01/HLA-; also recorded: A*03, HLA-A*03","Affinity for the HLA alleles of class II [3]: DRB1*03:01,; also recorded: DRB1*09:01,; also recorded: DRB1*11:01"
MSMSHRTMKS (Leishmania major) [SEQ ID NO: 13],"HLA-A*03:01,; also recorded: HLA-A*11:01",HLA-A*03,–
NAQMSMMER (Leishmania major) [SEQ ID NO: 14],"HLA-A*68:01,; also recorded: HLA-A*33:01,; also recorded: HLA-A*31:01",HLA-A*03,–
NENNITGGL (MENNITGGL; Leishmania major) [SEQ ID NO: 67],–,–,"Concatenation affinity for HLA allele of class I [1]: HLA-B*40:02,; also recorded: HLA-B*44:02,; also recorded: HLA-B*44:03; also recorded: HLA-B*18:01,; also recorded: HLA-B*40:01,; Affinity for HLA supertypes of class I [2]: HLA-B*44"
NVYVGRSLK (Leishmania major) [SEQ ID NO: 47],–,–,Affinity HLA alleles of class II [3]: HLA-DRB5*01:01; Affinity HLA alleles of class I [1]: HLA-A*03:01; Affinity HLA supertype allele of class I [2]: HLA-A*03
QMSMSHRTM (Leishmania major) [SEQ ID NO: 49],–,–,"Affinity HLA alleles of class II [3]: HLA-DRB1*01:01,; also recorded: HLA-DRB4*01:01; Affinity HLA alleles of class I [1]: HLA-B*15:01; Affinity HLA supertype allele of class I [2]: HLA-B*62"
RFAQGEHDI (Leishmania major) [SEQ ID NO: 70],–,–,Concatenation affinity for HLA allele of class I [1]: HLA-A*2403; Affinity for HLA supertypes of class I [2]: HLA-A*24
RLPENAFVI (Leishmania major) [SEQ ID NO: 71],–,–,"Concatenation affinity for HLA allele of class I [1]: HLA-A*32:01,; also recorded: HLA-A*02:06,; also recorded: HLA-A*02:11,; also recorded: HLA-A*02:12,; also recorded: HLA-A*02:16,; also recorded: HLA-A*02:19; Affinity for HLA supertypes of class I [2]: HLA-A*01,; also recorded: HLA-A*02"
SLKAINAQM (Leishmania major) [SEQ ID NO: 50],–,–,"Affinity HLA alleles of class II [3]: HLA-DRB1*04:01,; also recorded: HLA-DRB1*08:02,; also recorded: HLA-DRB1*09:01,; also recorded: HLA-DRB1*11:01,; also recorded: HLA-DRB1*13:02,; also recorded: HLA-DRB4*01:01; Affinity HLA alleles of class I [1]: HLA-B*15:01; Affinity HLA supertype allele of class I [2]: HLA-B*62"
SMSHRTMK (Leishmania major) [SEQ ID NO: 15],HLA-A*03:01,HLA-A*03,–
SMSHRTMKI (Leishmania major) [SEQ ID NO: 16],"HLA-A*02:03,; also recorded: HLA-A*32:01,; also recorded: HLA-A*02:01",HLA-A*02,"Affinity for the HLA alleles of class II [3]: DRB1*07:01,; also recorded: DRB1*13:02"
SMSHRTMKIK (Leishmania major) [SEQ ID NO: 17],"HLA-A*03:01,; also recorded: HLA-A*11:01,; also recorded: HLA-A*30:01","HLA-A*01/HLA-; also recorded: A*03, HLA-A*03",–
SMSHRTMKS (Leishmania major) [SEQ ID NO: 18],HLA-A*02:03,HLA-A*02,–
SSIMVVANK (Leishmania major) [SEQ ID NO: 76],–,–,"Concatenation affinity for HLA allele of class I [1]: HLA-A*30:01,; also recorded: HLA-A*03:01,; also recorded: HLA-A*11:01,; also recorded: HLA-A*31:01,; also recorded: HLA-A*68:01; Affinity for HLA supertypes of class I [2]: HLA-A*01/HLA-A*03,"
TMKSMSHRT (Leishmania major) [SEQ ID NO: 20],HLA-A*02:03,HLA-A*02,–
TQGSSKAGF (Leishmania major) [SEQ ID NO: 72],–,–,"Concatenation affinity for HLA allele of class I [1]: HLA-B*15:01,; also recorded: HLA-B*15:02; Affinity for HLA supertypes of class I [2]: HLA-B*27,; also recorded: HLA-B*62"
